Drawing on patent US8846698B2, “Pyrrolo[2,3-d]pyrimidine tropomysin-related kinase inhibitors” (Pfizer Limited, priority 2011, dated 2014), this text covers IC50, Papp A→B and Papp B→A for eleven compounds.

The target in series [1] is T1, TRKA (Homo sapiens (Human), UniProt P04629). The series can be described thus: Isolated TRK enzyme assay (HTRF KinEASE-TK), TRKA. In kind it is biochemical. The conditions noted are these: isolated TRKA enzyme; read-out: TrkA enzyme potency. On the technique in general: Time-resolved FRET reads energy transfer from a long-lived donor to a nearby acceptor.
Target sequence in this assay (P04629 441-796): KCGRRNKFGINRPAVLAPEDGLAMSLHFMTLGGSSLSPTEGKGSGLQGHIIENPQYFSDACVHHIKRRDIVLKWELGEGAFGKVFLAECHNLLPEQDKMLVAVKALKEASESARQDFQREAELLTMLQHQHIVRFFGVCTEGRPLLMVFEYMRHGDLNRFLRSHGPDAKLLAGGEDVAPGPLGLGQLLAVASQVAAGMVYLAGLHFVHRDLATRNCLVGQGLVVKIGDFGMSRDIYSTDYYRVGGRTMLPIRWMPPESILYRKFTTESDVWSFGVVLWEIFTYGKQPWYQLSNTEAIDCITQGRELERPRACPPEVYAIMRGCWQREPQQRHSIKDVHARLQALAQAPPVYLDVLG
For series [2], the target named is T2, TRKB (Homo sapiens (Human), UniProt Q16620). The series can be described thus: biochemical.
T2 sequence (Q16620 32-822 limits assumed): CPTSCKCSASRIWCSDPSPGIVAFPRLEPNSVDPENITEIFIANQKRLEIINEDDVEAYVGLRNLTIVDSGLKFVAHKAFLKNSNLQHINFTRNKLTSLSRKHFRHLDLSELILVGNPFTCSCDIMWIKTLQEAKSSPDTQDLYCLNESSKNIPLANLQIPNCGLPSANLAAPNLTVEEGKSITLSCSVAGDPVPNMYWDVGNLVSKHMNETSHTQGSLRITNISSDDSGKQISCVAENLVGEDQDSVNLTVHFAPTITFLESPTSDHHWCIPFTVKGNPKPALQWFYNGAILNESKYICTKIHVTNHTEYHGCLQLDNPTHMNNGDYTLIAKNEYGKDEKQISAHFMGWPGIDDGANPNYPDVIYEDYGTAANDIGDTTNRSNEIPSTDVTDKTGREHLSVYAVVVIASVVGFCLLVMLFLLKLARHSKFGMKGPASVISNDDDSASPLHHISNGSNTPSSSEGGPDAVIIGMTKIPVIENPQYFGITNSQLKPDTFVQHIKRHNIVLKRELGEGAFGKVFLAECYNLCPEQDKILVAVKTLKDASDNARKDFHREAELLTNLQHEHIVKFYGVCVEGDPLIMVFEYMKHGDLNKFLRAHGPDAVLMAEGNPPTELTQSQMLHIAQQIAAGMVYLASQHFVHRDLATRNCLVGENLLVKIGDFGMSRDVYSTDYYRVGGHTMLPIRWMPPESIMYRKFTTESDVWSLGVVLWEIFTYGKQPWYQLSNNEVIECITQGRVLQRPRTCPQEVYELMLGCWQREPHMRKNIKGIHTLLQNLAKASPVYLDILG
Series [3] addresses TRKC (Homo sapiens (Human), UniProt Q16288). The series can be described thus: Cell based DiscoveRx PathHunter antagonist assay, TRKC cell line. The conditions noted are these: read-out: TrkC cell potency. How it is done:
After the Detection Reagent addition, plates are covered and incubated at room temperature for 60 minutes. […] Test compound data are expressed as percentage inhibition defined by HPE and ZPE values for each plate. Percentage inhibition in the presence of test compound is plotted against compound concentration on a log scale to determine an IC50 from the resultant sigmoid curve. Cell Based Assays were carried out using Cell lines from DiscoveRx utilising their PathHunter technology and reagents in an antagonist assay:
The assays are based upon DiscoveRx's proprietary Enzyme Fragment Complementation (EFC) technology. In the case of the TRK cell lines, the enzyme acceptor (EA) protein is fused to a SH2 protein and the TRK receptor of interest has been tagged with a Prolink tag.
Upon neurotrophin binding, the TRK receptor becomes phosphorylated, and the tagged SH2 protein binds.
This means that the IC50 is a good measure of affinity and should be unaffected by concentration neurotrophin stimulant.
Cryopreserved PathHunter cells are used from either in-house produced batches or bulk batches bought directly from DiscoveRx. Cryopreserved cells are resuscitated, spun 1000 rpm for 4 min to remove freezing media, and resuspended in MEM+0.5% horse serum (both Invitrogen) to 5e^5 cells/ml. The cells are then plated using a Multidrop into Greiner white tissue culture treated plates at 20 ul/well and incubated for 24 h at 37° C., 5% CO2, high humidity. On the day of the assay, the cell plates are allowed to cool to room temperature for 30 min prior to the assay.
Plates containing 1 ul of serially diluted compound, standard and HPE/ZPE are diluted 1/66 in assay buffer (PBS minus Ca^2+, minus Mg^2+ with 0.05% pluronic F127) using a Wellmate. […] The plates are left at room temperature for a further 2 hours before addition of 10 ul of the DiscoveRx PathHunter detection reagent (made up by adding 1 part Galacton Star, 5 parts Emerald II and 19 parts Cell Assay Buffer as per the manufacturer's instructions).
After reagent addition, plates are covered and incubated at room temperature for 60 minutes. Luminescence signal is read using an Envision. Test compound data are expressed as percentage inhibition defined by HPE and ZPE values for each plate. Percentage inhibition in the presence of test compound is plotted against compound concentration on a log scale to determine an […] from the resultant sigmoid curve.

Series [4] has as its target BCRP (ABCG2) (Homo sapiens (Human), UniProt Q9UNQ0). As to the kind of experiment: MDCK-BCRP efflux assay (in vitro brain penetration). It is filed as in vitro ADME. The conditions noted are these: dog; for Papp A→B: A to B, read-out: RRCK BCRP Papp AB; for Papp B→A: B to A, read-out: RRCK BCRP Papp BA.
Series [5] has as its target MDR1 (Homo sapiens (Human), UniProt P08183). The series can be described thus: MDCK-MDR1 assay (in vitro brain penetration). It is filed as in vitro ADME. The conditions noted are these: human; for Papp A→B: MDCK-MDR1, A to B, read-out: MDCK MDR1 Papp AB; for Papp B→A: read-out: MDCK MDR1 Papp BA. From the text: MDCK-MDR1: MDCK-MDR1 data were collected according to the method described in “Are MDCK Cells Transfected with the Human MDR1 Gene a Good Model of the Human Intestinal Mucosa?”
http://www.springerlink.com/content/qfhqlqbr4fnp3 khf/fulltext.pdf

The target of series [6] is T2, TRKB. The series can be described thus: cell-based. The conditions noted are these: TrkB cell potency, TRKB PathHunter cell line.
The target of series [7] is T1, TRKA. The series can be described thus: Cell based DiscoveRx PathHunter antagonist assay, TRKA cell line. The conditions noted are these: read-out: TrkA cell potency.
Target sequence in this assay (P04629 33-796): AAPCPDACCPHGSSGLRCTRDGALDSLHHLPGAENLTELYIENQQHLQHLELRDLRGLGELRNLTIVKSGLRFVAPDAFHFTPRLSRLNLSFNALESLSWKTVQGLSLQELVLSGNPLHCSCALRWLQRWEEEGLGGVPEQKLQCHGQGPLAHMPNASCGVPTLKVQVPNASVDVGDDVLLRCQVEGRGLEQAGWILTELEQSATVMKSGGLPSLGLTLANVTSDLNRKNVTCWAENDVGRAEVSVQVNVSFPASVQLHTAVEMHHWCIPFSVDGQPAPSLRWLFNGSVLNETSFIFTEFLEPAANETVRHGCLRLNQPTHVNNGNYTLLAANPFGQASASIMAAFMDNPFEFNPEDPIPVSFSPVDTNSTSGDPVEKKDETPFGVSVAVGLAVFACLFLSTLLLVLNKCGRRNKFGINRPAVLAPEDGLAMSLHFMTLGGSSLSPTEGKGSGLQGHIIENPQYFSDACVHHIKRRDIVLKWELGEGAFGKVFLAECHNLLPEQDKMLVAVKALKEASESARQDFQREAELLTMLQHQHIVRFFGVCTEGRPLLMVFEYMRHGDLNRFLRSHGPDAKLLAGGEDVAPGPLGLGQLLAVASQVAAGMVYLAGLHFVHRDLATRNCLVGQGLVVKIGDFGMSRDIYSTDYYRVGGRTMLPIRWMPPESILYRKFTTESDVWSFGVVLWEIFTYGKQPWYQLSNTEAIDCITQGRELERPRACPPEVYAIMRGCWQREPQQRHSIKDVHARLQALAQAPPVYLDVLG
[8] abbreviates: isolated TRKB enzyme, read-out: TrkB enzyme potency.

Structures are written as SMILES. Like-named read-outs stand apart in the source and are kept apart here. Bounds are passed on as bounds.

Sequence of MDR1 (P08183 whole entry): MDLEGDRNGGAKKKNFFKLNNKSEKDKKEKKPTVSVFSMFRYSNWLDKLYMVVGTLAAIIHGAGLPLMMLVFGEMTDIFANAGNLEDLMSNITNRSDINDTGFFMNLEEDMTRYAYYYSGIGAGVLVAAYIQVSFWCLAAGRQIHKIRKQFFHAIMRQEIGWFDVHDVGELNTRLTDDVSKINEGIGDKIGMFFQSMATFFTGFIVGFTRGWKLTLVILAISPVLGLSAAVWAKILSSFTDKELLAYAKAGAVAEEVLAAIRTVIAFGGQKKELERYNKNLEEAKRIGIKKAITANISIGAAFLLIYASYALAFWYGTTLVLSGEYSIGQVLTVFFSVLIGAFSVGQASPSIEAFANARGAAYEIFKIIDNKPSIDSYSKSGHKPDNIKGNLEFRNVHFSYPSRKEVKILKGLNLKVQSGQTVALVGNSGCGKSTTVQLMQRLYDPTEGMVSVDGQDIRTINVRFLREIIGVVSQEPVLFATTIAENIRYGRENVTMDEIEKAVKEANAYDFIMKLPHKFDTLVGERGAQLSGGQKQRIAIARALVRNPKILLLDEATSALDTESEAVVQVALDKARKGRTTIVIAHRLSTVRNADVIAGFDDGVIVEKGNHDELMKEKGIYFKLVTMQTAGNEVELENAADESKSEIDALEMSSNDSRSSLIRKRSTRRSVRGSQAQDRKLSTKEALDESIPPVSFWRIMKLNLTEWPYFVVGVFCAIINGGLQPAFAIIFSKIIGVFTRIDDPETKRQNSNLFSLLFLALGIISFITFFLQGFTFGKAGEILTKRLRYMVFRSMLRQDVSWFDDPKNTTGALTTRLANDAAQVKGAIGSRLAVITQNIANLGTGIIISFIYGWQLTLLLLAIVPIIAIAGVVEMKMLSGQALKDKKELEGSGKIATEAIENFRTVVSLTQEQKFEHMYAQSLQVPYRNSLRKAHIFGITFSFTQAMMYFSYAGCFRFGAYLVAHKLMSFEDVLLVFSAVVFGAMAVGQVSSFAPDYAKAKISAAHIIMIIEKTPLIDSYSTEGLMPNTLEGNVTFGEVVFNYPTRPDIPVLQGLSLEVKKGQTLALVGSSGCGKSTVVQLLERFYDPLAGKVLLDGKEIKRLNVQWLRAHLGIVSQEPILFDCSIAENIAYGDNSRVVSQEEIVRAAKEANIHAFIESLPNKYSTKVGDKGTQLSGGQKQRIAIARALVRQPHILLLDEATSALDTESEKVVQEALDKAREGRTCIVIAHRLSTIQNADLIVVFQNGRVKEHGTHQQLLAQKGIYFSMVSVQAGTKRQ
Sequence of BCRP (ABCG2) (Q9UNQ0 whole entry): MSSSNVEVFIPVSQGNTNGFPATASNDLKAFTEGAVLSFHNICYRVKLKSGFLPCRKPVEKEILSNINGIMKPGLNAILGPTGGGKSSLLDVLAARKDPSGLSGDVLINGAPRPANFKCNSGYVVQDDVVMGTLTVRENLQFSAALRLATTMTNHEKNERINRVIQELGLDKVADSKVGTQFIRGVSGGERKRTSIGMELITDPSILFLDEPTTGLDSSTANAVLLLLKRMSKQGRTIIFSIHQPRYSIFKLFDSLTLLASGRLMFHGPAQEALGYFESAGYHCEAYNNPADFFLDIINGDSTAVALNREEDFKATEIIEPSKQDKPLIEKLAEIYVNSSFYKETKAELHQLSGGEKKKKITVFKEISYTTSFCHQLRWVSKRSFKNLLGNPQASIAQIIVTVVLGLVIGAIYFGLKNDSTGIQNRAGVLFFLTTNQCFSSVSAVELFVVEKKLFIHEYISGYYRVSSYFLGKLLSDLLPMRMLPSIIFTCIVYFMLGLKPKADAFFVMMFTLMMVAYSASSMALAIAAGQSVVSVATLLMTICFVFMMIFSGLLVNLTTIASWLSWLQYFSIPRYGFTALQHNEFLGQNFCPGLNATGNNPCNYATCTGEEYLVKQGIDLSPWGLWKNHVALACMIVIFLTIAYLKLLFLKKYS
Sequence of TRKC (Q16288 32-839): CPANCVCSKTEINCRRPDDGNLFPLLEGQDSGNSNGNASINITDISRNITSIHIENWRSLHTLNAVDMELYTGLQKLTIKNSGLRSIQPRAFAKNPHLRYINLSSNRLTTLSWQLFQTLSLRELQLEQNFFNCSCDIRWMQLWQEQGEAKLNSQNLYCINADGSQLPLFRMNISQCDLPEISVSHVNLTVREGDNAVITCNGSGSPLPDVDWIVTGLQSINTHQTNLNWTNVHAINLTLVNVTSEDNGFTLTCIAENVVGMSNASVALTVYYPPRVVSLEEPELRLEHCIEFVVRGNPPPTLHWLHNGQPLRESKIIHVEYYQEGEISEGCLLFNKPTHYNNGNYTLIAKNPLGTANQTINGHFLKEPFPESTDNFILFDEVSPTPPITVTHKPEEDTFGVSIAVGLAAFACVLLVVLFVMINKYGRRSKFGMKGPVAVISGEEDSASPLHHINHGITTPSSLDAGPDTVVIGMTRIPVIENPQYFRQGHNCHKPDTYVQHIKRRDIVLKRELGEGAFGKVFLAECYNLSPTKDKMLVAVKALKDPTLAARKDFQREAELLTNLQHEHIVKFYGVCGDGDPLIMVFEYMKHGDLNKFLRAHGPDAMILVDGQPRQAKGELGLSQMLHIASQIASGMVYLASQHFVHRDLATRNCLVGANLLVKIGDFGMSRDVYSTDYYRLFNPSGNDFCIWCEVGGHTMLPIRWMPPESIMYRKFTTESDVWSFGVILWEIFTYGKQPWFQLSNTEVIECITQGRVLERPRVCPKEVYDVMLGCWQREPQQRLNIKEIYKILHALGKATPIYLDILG

Consider `CC(C)(C)n1cc(C(=O)c2cncc(NC(=O)Cn3cc(C4CC4)nn3)c2)c2cncnc21` [Example 4, N-{5-[(7-tert-butyl-7H-pyrrolo[2,3-d]pyrimidin-5-yl)carbonyl]pyridin-3-yl}-2-(4-cyclopropyl-1H-1,2,3-triazol-1-yl)acetamide], for which the IC50 worked out at 3.9 nM in series [1]; 162 nM in series [2] (TrkB enzyme potency); 4.4 nM in series [3]; 6.5 nM in series [6]; 5.7 nM in series [7]. The values for the Papp A→B in series [4] and in series [5] were 12 ×10⁻⁶ cm/s and below 1 ×10⁻⁶ cm/s, respectively. Further, the Papp B→A stood at 39 ×10⁻⁶ cm/s in series [4] and 13 ×10⁻⁶ cm/s in series [5] (MDCK-MDR1, B to A).
On to `C[C@@H](CO)n1cc(C(=O)c2cncc(NC(=O)Cc3ccc(C(F)(F)F)cc3)c2)c2cncnc21` [Example 9, N-[5-({7-[(1S)-2-Hydroxy-1-methylethyl]-7H-pyrrolo[2,3-d]pyrimidin-5-yl}carbonyl)pyridin-3-yl]-2-[4-(trifluoromethyl)phenyl]acetamide], for which the IC50 was 3.7 nM in series [1]; 94 nM in series [2] (setting [8]); 5.9 nM in series [3]; 6.6 nM in series [6]; 13 nM in series [7]. For the same compound, the results for the Papp A→B in series [4] and in series [5] were 9 ×10⁻⁶ cm/s and below 1 ×10⁻⁶ cm/s, respectively. The Papp B→A was 43 ×10⁻⁶ cm/s in series [4] and 20 ×10⁻⁶ cm/s in series [5] (MDCK-MDR1, MDCK-MDR1, B to A).
`C[C@H](CO)n1cc(C(=O)c2cncc(NC(=O)Cc3ccc(Cl)cc3)c2)c2cncnc21` [Example 24, 2-(4-chlorophenyl)-N-[5-({7-[(1R)-2-hydroxy-1-methylethyl]-7H-pyrrolo[2,3-d]pyrimidin-5-yl}carbonyl)pyridin-3-yl]acetamide]: the IC50 in series [1] was 125 nM; in series [2] (TrkB enzyme potency), 427 nM; in series [3], 8.9 nM; in series [6] it was 27 nM; in series [7], 37 nM. For the same compound, in series [5], the Papp A→B is below 1 ×10⁻⁶ cm/s. The Papp B→A in series [5] (MDCK-MDR1, B to A) turned out to be 10 ×10⁻⁶ cm/s.
As for `Cc1cc(C(F)(F)F)nn1CC(=O)Nc1cncc(C(=O)c2cn(C(C)(C)CO)c3ncncc23)c1` [Example 26, N-(5-{[7-(2-hydroxy-1,1-dimethylethyl)-7H-pyrrolo[2,3-d]pyrimidin-5-yl]carbonyl}pyridin-3-yl)-2-[5-methyl-3-(trifluoromethyl)-1H-pyrazol-1-yl]acetamide], the IC50 in series [1] came to 3.5 nM; in series [2] (TrkB enzyme potency), 30 nM; in series [3] it was 8.6 nM; in series [6], 5.9 nM; in series [7] it was 14 nM. Moreover, the results for the Papp A→B in series [4] and in series [5] were 7.5 ×10⁻⁶ cm/s and below 1 ×10⁻⁶ cm/s, respectively. The Papp B→A turned out to be 32 ×10⁻⁶ cm/s in series [4] and 16 ×10⁻⁶ cm/s in series [5] (MDCK-MDR1, B to A).
As to `CC(C)(CO)n1cc(C(=O)c2cncc(NC(=O)Cc3ccc(C(F)(F)F)cc3)c2)c2cncnc21` [Example 27, N-(5-{[7-(2-hydroxy-1,1-dimethylethyl)-7H-pyrrolo[2,3-d]pyrimidin-5-yl]carbonyl}pyridin-3-yl)-2-[4-(trifluoromethyl)phenyl]acetamide], the IC50 is 2.8 nM in series [1]; 55 nM in series [2] (setting [8]); 3.2 nM in series [3]; 5.4 nM in series [6]; 3.9 nM in series [7]. The Papp B→A in series [5] (MDCK-MDR1, MDCK-MDR1, B to A) was found to be 17 ×10⁻⁶ cm/s. Also, the Papp A→B in series [5] is below 1 ×10⁻⁶ cm/s.
As for `CC(C)(CO)n1cc(C(=O)c2cncc(NC(=O)Cn3cc(C(F)(F)F)nn3)c2)c2cncnc21` [Example 32, N-(5-{[7-(2-hydroxy-1,1-dimethylethyl)-7H-pyrrolo[2,3-d]pyrimidin-5-yl]carbonyl}pyridin-3-yl)-2-[4-(trifluoromethyl)-1H-1,2,3-triazol-1-yl]acetamide], the IC50 stood at 9 nM in series [1]; 423 nM in series [2] (setting [8]); 18 nM in series [3]; 59 nM in series [6]; 87 nM in series [7]. The Papp B→A in series [5] (MDCK-MDR1, MDCK-MDR1, B to A) amounted to 3.4 ×10⁻⁶ cm/s. Further, in series [5], the Papp A→B was below 1 ×10⁻⁶ cm/s.
`CC(C)(CO)n1cc(C(=O)c2cncc(NC(=O)Cc3ccc(Cl)cn3)c2)c2cnc(N)nc21` [Example 46, N-(5-{[2-Amino-7-(2-hydroxy-1,1-dimethylethyl)-7H-pyrrolo[2,3-d]pyrimidin-5-yl]carbonyl}pyridin-3-yl)-2-(5-chloropyridin-2-yl)acetamide]: the Papp A→B was 7 ×10⁻⁶ cm/s in series [4] and below 1 ×10⁻⁶ cm/s in series [5]. In addition, the Papp B→A came out at 31 ×10⁻⁶ cm/s in series [4] and 18 ×10⁻⁶ cm/s in series [5] (MDCK-MDR1, MDCK-MDR1, B to A).
On to `CC(C)(CO)n1cc(C(=O)c2cncc(NC(=O)Cc3ccc(C(F)(F)F)cc3)c2)c2cnc(N)nc21` [Example 48, N-(5-{[2-amino-7-(2-hydroxy-1,1-dimethylethyl)-7H-pyrrolo[2,3-d]pyrimidin-5-yl]carbonyl}pyridin-3-yl)-2-[4-(trifluoromethyl)phenyl]acetamide], for which the IC50 in series [1] worked out at 1.7 nM; in series [2] (setting [8]), 40 nM; in series [3] it was 2.5 nM; in series [6], 3.6 nM; in series [7], 2.9 nM. Moreover, the Papp B→A in series [5] (MDCK-MDR1, MDCK-MDR1, B to A) was found to be 12 ×10⁻⁶ cm/s. The Papp A→B in series [5] is below 1 ×10⁻⁶ cm/s.
Regarding `CC(C)(CO)n1cc(C(=O)c2cncc(NC(=O)Cc3ccc(F)cn3)c2)c2cnc(N)nc21` [Example 51, N-(5-{[2-amino-7-(2-hydroxy-1,1-dimethylethyl)-7H-pyrrolo[2,3-d]pyrimidin-5-yl]carbonyl}pyridin-3-yl)-2-(5-fluoropyridin-2-yl)acetamide], the IC50 in series [1] stood at 7.8 nM; in series [2] (setting [8]) it was 198 nM; in series [3], 9.9 nM; in series [6] it was 7.5 nM; in series [7] it was 35 nM. Also, the Papp B→A in series [5] (MDCK-MDR1, MDCK-MDR1, B to A) worked out at 11 ×10⁻⁶ cm/s. Also, the Papp A→B in series [5] was below 1 ×10⁻⁶ cm/s.
Turning to `CC(C)(CO)n1cc(C(=O)c2cncc(NC(=O)Cn3ccc(C(F)(F)F)n3)c2)c2cnc(N)nc21` [Example 52, N-(5-{[2-amino-7-(2-hydroxy-1,1-dimethylethyl)-7H-pyrrolo[2,3-d]pyrimidin-5-yl]carbonyl}pyridin-3-yl)-2-[3-(trifluoromethyl)-1H-pyrazol-1-yl]acetamide], the IC50 in series [1] came out at 3.1 nM; in series [2] (TrkB enzyme potency), 103 nM; in series [3], 8.1 nM; in series [6] it was 16 nM; in series [7], 22 nM. The Papp A→B in series [5] is below 1 ×10⁻⁶ cm/s. Moreover, in series [5] (MDCK-MDR1, B to A), the Papp B→A is 9.1 ×10⁻⁶ cm/s.
For the compound `CC(C)(CO)n1cc(C(=O)c2cncc(NC(=O)Cn3ccc(C4CC4)n3)c2)c2cnc(N)nc21` [Example 53, N-(5-{[2-amino-7-(2-hydroxy-1,1-dimethylethyl)-7H-pyrrolo[2,3-d]pyrimidin-5-yl]carbonyl}pyridin-3-yl)-2-(3-cyclopropyl-1H-pyrazol-1-yl)acetamide], the IC50 in series [1] was determined as 4 nM; in series [2] (TrkB enzyme potency), 163 nM; in series [3] it was 8.6 nM; in series [6], 5 nM; in series [7] it was 16 nM. For the same compound, the Papp A→B in series [5] is below 1 ×10⁻⁶ cm/s. Besides, the Papp B→A in series [5] (MDCK-MDR1, B to A) was 13 ×10⁻⁶ cm/s.
